Experimental data published in ChEMBL document CHEMBL1201862, “PubChem BioAssay data set” (2004).
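Where inhibition never reached the appropriate level, the endpoint shown equals the highest concentration tested. Otherwise, values were interpolated linearly from a five-concentration, 48-hour dose response in 96-well plates. Here, GI50 denotes the concentration required for 50% inhibition of growth.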 Active and inactive are the calls of the source. Rule as the data show it: active = GI50 up to about 1.1 µM and inactive = higher.

Experiments:
Test in all cases: NCI anticancer screen, dose series, 48 h
[1] = tested on: NCI-H522
[2] = tested on: OVCAR-5
[3] = tested on: SF-539
[4] = tested on: A498
[5] = tested on: OVCAR-3
[6] = tested on: HOP-62
[7] = tested on: SNB-19
[8] = tested on: UO-31
[9] = tested on: HT-29
[10] = tested on: SNB-75
[11] = tested on: NCI-H226
[12] = tested on: DMS-273
[13] = tested on: SR
[14] = tested on: RXF 393
[15] = tested on: M19-MEL
[16] = tested on: RXF 631
[17] = tested on: HCT-116
[18] = tested on: TK-10
[19] = tested on: A549
[20] = tested on: XF498
[21] = tested on: ACHN
[22] = tested on: SN12C
[23] = tested on: SK-MEL-28
[24] = tested on: UACC-62
[25] = tested on: IGROV-1
[26] = tested on: CAKI-1
[27] = tested on: CCRF-CEM
[28] = tested on: UACC-257
[29] = tested on: Malme-3M
[30] = tested on: SW-620
[31] = tested on: NCI-H23
[32] = tested on: HOP-18
[33] = tested on: SF-268
[34] = tested on: SK-MEL-2
[35] = tested on: U-251
[36] = tested on: COLO 205
[37] = tested on: DLD-1
[38] = tested on: M14
[39] = tested on: LOX IMVI
[40] = tested on: MOLT-4
[41] = tested on: EKVX
[42] = tested on: SNB-78
[43] = tested on: DMS-114
[44] = tested on: KM12
[45] = tested on: SK-MEL-5
[46] = tested on: NCI-H460
[47] = tested on: HL-60
[48] = tested on: 786-0
[49] = tested on: SK-OV-3
[50] = tested on: LXFL 529
[51] = tested on: K562
[52] = tested on: KM-20L2
[53] = tested on: OVCAR-4
[54] = tested on: SF-295
[55] = tested on: OVCAR-8
[56] = tested on: HCC 2998
[57] = tested on: HCT-15
[58] = tested on: HOP-92

Which GI50 [1] does the source give for CSC1=Nc2ccccc2N=C(c2ccccc2)C1 here?
Its GI50 is 37.6 µM (inactive).

And the GI50 [2]?
The GI50 was 67.1 µM (inactive).

And the GI50 [3]?
Its GI50 is > 100 µM (inactive).

And the GI50 [4]?
The GI50 was > 100 µM (inactive).

What about the GI50 [5] of the same compound?
Its GI50 is 30.7 µM (inactive).

And the GI50 [6]?
Its GI50 is > 100 µM (inactive).

What about the GI50 [7] of the same compound?
The GI50 was > 100 µM (inactive).

And the GI50 [8]?
The GI50 was 38 µM (inactive).

And the GI50 [9]?
The GI50 was 46.7 µM (inactive).

What about the GI50 [10] of the same compound?
Its GI50 is 66.5 µM (inactive).

What about the GI50 [11] of the same compound?
The GI50 was > 100 µM (inactive).

And the GI50 [12]?
The GI50 was 39.6 µM (inactive).

What about the GI50 [13] of the same compound?
The GI50 was 24 µM (inactive).

What about the GI50 [14] of the same compound?
The GI50 was 20.4 µM (inactive).

What about the GI50 [15] of the same compound?
The GI50 was 54.6 µM (inactive).

And the GI50 [16]?
Its GI50 is 46.7 µM (inactive).

What about the GI50 [17] of the same compound?
The GI50 was 24.6 µM (inactive).

And the GI50 [18]?
The GI50 was 80 µM (inactive).

And the GI50 [19]?
Its GI50 is 80.2 µM (inactive).

What about the GI50 [20] of the same compound?
The GI50 was 39.4 µM (inactive).

What about the GI50 [21] of the same compound?
Its GI50 is > 100 µM (inactive).

And the GI50 [22]?
Its GI50 is > 100 µM (inactive).

What about the GI50 [23] of the same compound?
Its GI50 is > 100 µM (inactive).

And the GI50 [24]?
Its GI50 is > 100 µM (inactive).

And the GI50 [25]?
Its GI50 is > 100 µM (inactive).

What about the GI50 [26] of the same compound?
Its GI50 is 75.2 µM (inactive).

What about the GI50 [27] of the same compound?
The GI50 was 21 µM (inactive).

And the GI50 [28]?
Its GI50 is 33.1 µM (inactive).

What about the GI50 [29] of the same compound?
The GI50 was > 100 µM (inactive).

And the GI50 [30]?
The GI50 was 15.1 µM (inactive).

And the GI50 [31]?
Its GI50 is 50.2 µM (inactive).

What about the GI50 [32] of the same compound?
Its GI50 is > 100 µM (inactive).

What about the GI50 [33] of the same compound?
Its GI50 is > 100 µM (inactive).

What about the GI50 [34] of the same compound?
Its GI50 is > 100 µM (inactive).

And the GI50 [35]?
Its GI50 is > 100 µM (inactive).

And the GI50 [36]?
The GI50 was 21.2 µM (inactive).

What about the GI50 [37] of the same compound?
The GI50 was 29.4 µM (inactive).

What about the GI50 [38] of the same compound?
The GI50 was > 100 µM (inactive).

And the GI50 [39]?
Its GI50 is 17.2 µM (inactive).

What about the GI50 [40] of the same compound?
Its GI50 is 27.9 µM (inactive).

And the GI50 [41]?
The GI50 was 54.8 µM (inactive).

And the GI50 [42]?
The GI50 was > 100 µM (inactive).

What about the GI50 [43] of the same compound?
The GI50 was 21.5 µM (inactive).

And the GI50 [44]?
The GI50 was 36 µM (inactive).

What about the GI50 [45] of the same compound?
The GI50 was 44.5 µM (inactive).

And the GI50 [46]?
The GI50 was 19.1 µM (inactive).

And the GI50 [47]?
Its GI50 is 15.3 µM (inactive).

And the GI50 [48]?
The GI50 was 34.5 µM (inactive).

What about the GI50 [49] of the same compound?
Its GI50 is > 100 µM (inactive).

What about the GI50 [50] of the same compound?
The GI50 was 70 µM (inactive).

What about the GI50 [51] of the same compound?
The GI50 was 34.6 µM (inactive).

And the GI50 [52]?
Its GI50 is 35.4 µM (inactive).

What about the GI50 [53] of the same compound?
The GI50 was > 100 µM (inactive).

And the GI50 [54]?
Its GI50 is > 100 µM (inactive).

What about the GI50 [55] of the same compound?
Its GI50 is 61.7 µM (inactive).

And the GI50 [56]?
The GI50 was 62.2 µM (inactive).

What about the GI50 [57] of the same compound?
Its GI50 is 33.3 µM.

And the GI50 [58]?
Its GI50 is 20.2 µM (inactive).

CNC(=S)NNC(=O)c1c(C)nc2sccn12 was tested. Which GI50 [1] did it give?
Its GI50 is > 100 µM (inactive).

And the GI50 [2]?
Its GI50 is > 100 µM (inactive).

And the GI50 [3]?
Its GI50 is > 100 µM (inactive).

What about the GI50 [5] of the same compound?
Its GI50 is > 100 µM (inactive).

What about the GI50 [6] of the same compound?
Its GI50 is > 100 µM (inactive).

What about the GI50 [7] of the same compound?
The GI50 was 99.5 µM (inactive).

What about the GI50 [9] of the same compound?
The GI50 was > 100 µM (inactive).

What about the GI50 [11] of the same compound?
Its GI50 is > 100 µM (inactive).

And the GI50 [12]?
The GI50 was > 100 µM (inactive).

And the GI50 [13]?
Its GI50 is > 100 µM (inactive).

And the GI50 [14]?
The GI50 was > 100 µM (inactive).

What about the GI50 [15] of the same compound?
Its GI50 is > 100 µM (inactive).

And the GI50 [16]?
Its GI50 is > 100 µM (inactive).

What about the GI50 [17] of the same compound?
Its GI50 is > 100 µM (inactive).

And the GI50 [18]?
Its GI50 is > 100 µM (inactive).

What about the GI50 [19] of the same compound?
Its GI50 is > 100 µM (inactive).

And the GI50 [20]?
Its GI50 is > 100 µM (inactive).

And the GI50 [21]?
The GI50 was > 100 µM (inactive).

What about the GI50 [22] of the same compound?
Its GI50 is > 100 µM (inactive).

And the GI50 [23]?
The GI50 was > 100 µM (inactive).

What about the GI50 [24] of the same compound?
The GI50 was > 100 µM (inactive).

And the GI50 [25]?
The GI50 was > 100 µM (inactive).

What about the GI50 [26] of the same compound?
Its GI50 is > 100 µM (inactive).

And the GI50 [27]?
Its GI50 is > 100 µM (inactive).

And the GI50 [28]?
The GI50 was > 100 µM (inactive).

What about the GI50 [29] of the same compound?
The GI50 was > 100 µM (inactive).

What about the GI50 [30] of the same compound?
The GI50 was > 100 µM (inactive).

And the GI50 [31]?
The GI50 was > 100 µM (inactive).

And the GI50 [32]?
The GI50 was 0.414 µM (active).

And the GI50 [33]?
The GI50 was > 100 µM (inactive).

What about the GI50 [34] of the same compound?
The GI50 was > 100 µM (inactive).

And the GI50 [35]?
The GI50 was > 100 µM (inactive).

What about the GI50 [36] of the same compound?
Its GI50 is > 100 µM (inactive).

And the GI50 [37]?
The GI50 was > 100 µM (inactive).

And the GI50 [39]?
The GI50 was > 100 µM (inactive).

And the GI50 [40]?
Its GI50 is > 100 µM (inactive).

And the GI50 [41]?
The GI50 was > 100 µM (inactive).

And the GI50 [44]?
Its GI50 is > 100 µM (inactive).

And the GI50 [45]?
The GI50 was > 100 µM (inactive).

What about the GI50 [46] of the same compound?
The GI50 was > 100 µM (inactive).

What about the GI50 [47] of the same compound?
The GI50 was > 100 µM (inactive).

What about the GI50 [48] of the same compound?
The GI50 was > 100 µM (inactive).

And the GI50 [49]?
The GI50 was > 100 µM (inactive).

And the GI50 [50]?
Its GI50 is > 100 µM (inactive).

What about the GI50 [51] of the same compound?
The GI50 was > 100 µM (inactive).

And the GI50 [52]?
The GI50 was > 100 µM (inactive).

And the GI50 [54]?
The GI50 was > 100 µM (inactive).

And the GI50 [55]?
The GI50 was > 100 µM (inactive).

What about the GI50 [56] of the same compound?
The GI50 was > 100 µM (inactive).

And the GI50 [57]?
The GI50 was > 100 µM.

And the GI50 [58]?
The GI50 was > 100 µM (inactive).
